Here are results for 3 compounds from article PMC10043283, “Neuraminidase 1 promotes renal fibrosis development in male mice” (Nature Communications, 2023).

Read-outs that look alike come from different tables or passages of the source.

The target in the experiment is T1, NEU1 (neuraminidase 1) (Homo sapiens, UniProt Q99519).
T1 construct: recombinant human NEU1 protein
Briefly: SPR (Biacore T200, NEU1 immobilized on CM5 chip). The experiment is classed as binding. (In general: Surface plasmon resonance follows binding to a sensor surface in real time, without labels.)

The Kd is the constant that tells how readily two partners part at equilibrium. With `O=C(/C=C/c1ccc(O)c(O)c1/C=C/c1ccc(O)c(O)c1)O[C@H](Cc1ccc(O)c(O)c1)C(=O)O` [SaA, salvianolic acid A], under “read-out: Kd”, the Kd stood at 52300 nM. For the compound `O=C(/C=C/c1ccc(O)c2c1[C@H](C(=O)O[C@H](Cc1ccc(O)c(O)c1)C(=O)O)[C@@H](c1ccc(O)c(O)c1)O2)O[C@H](Cc1ccc(O)c(O)c1)C(=O)O` [SaB, salvianolic acid B], the Kd (read-out: Kd) came to 21.6 nM.

In turn, `O=C(/C=C/c1ccc(O)c(O)c1)O[C@H](Cc1ccc(O)c(O)c1)C(=O)O` [rosmarinic acid] came in with a Kd of 141 nM.
